From the Kinase Knowledgebase extract (Sharma et al. 2016)

The compounds below were run against CDK2 (human) (UniProt P24941) (assay: Enzyme Assay).

Ki, < 1000 nM:
Cn1cnc(NC(=O)CCCc2ccc3c(=O)[nH][nH]c3c2)c1
O=c1[nH][nH]c2ccc(-c3nc(Nc4n[nH]c5cccc(Cl)c45)c4ccccc4n3)c(C(F)(F)F)c12
O=c1[nH][nH]c2cc(C(F)(F)F)c(-c3cc(Nc4n[nH]c5ccccc45)cc(C4CCCCC4)n3)cc12
O=c1[nH][nH]c2ccc(-c3nc(Nc4n[nH]c(C5CC5)n4)c4ccncc4n3)c(Cl)c12
Cc1cc(Nc2cc(N3CCOCC3)nc(OCc3ccc4c(=O)[nH][nH]c4c3)n2)n[nH]1
CC1CCN(c2nc(Nc3n[nH]c4ccccc34)nc(-c3cc4c(=O)[nH][nH]c4cc3C(F)(F)F)n2)C1 (stereo not given)
O=c1[nH][nH]c2cc(CC(CCNc3nccnn3)Cc3ccccc3)ccc12 (stereo not given)
O=c1[nH][nH]c2cc(Cc3cc4ccccc4c(Nc4cc(C5CC5)[nH]n4)n3)ccc12
O=c1[nH][nH]c2cc(Oc3cccc(Nc4n[nH]c5ccccc45)n3)ccc12
Cc1cc(Nc2nc(Cc3ccc4c(=O)[nH][nH]c4c3)nc3c2CCCC3)n[nH]1
O=C(CCSc1ccc2c(=O)[nH][nH]c2c1)Nc1ccccn1
O=c1[nH][nH]c2cc(NCCCNc3cc(C4CC4)[nH]n3)ccc12
Cc1cc(Nc2cc(-c3ccco3)[nH]n2)nc(COc2ccc3c(=O)[nH][nH]c3c2)n1
O=c1[nH][nH]c2ccc(C3CCCC(Nc4nccnn4)C3)cc12 (stereo not given)
O=c1[nH][nH]c2ccc(-c3nc(Nc4n[nH]c(-c5ccccc5)c4-c4ccccc4)c4ccccc4n3)c(C(F)(F)F)c12
O=c1[nH][nH]c2cc(NCCC(Nc3nccnn3)c3ccccc3)ccc12 (stereo not given)
O=c1[nH][nH]c2cc(Sc3cc4ccccc4c(Nc4cc(C5CC5)[nH]n4)n3)ccc12
O=c1[nH][nH]c2cc(SC3CCCC(Nc4nccnn4)C3)ccc12 (stereo not given)
Cn1cnc(NC(CCNc2ccc3c(=O)[nH][nH]c3c2)c2ccccc2)c1 (stereo not given)
Cn1cnc(NCCC(Cc2ccccc2)Sc2ccc3c(=O)[nH][nH]c3c2)c1 (stereo not given)
O=c1[nH][nH]c2cc(Nc3ncnc(Nc4cc(C5CC5)[nH]n4)n3)ccc12
O=c1[nH][nH]c2cc(Nc3nc(Nc4ccc5c(=O)[nH][nH]c5c4)c4ccccc4n3)ccc12
O=c1[nH][nH]c2cc(Cl)c(-c3cc4ncccc4c(Nc4n[nH]c5ccccc45)n3)cc12
O=c1[nH][nH]c2ccc(-c3nc(Nc4n[nH]c5c4CCCC5)c4ccccc4n3)c(C(F)(F)F)c12
O=c1[nH][nH]c2cc(Cl)c(-c3cc(Nc4n[nH]c5ccccc45)c4c(n3)CCCC4)cc12
O=c1[nH][nH]c2cc(C(F)(F)F)c(-c3nc4c(c(Nc5n[nH]c6ccc(F)cc56)n3)OCCC4)cc12
Cc1cc(Nc2nc(Nc3ccc4c(=O)[nH][nH]c4c3)nc3ccc(I)cc23)n[nH]1
O=c1[nH][nH]c2cc(C(F)(F)F)c(-c3cc(Nc4n[nH]c5ccccc45)cc(-c4ccccc4)n3)cc12
Cc1cccc2c(Nc3cc(-c4ccccc4)[nH]n3)nc(-c3ccc4[nH][nH]c(=O)c4c3OC(F)(F)F)nc12
O=c1[nH][nH]c2cc(NCCCNc3nccnn3)ccc12
O=c1[nH][nH]c2cc(CCC3CCCC3Nc3nccnn3)ccc12 (stereo not given)
Cc1cc(Nc2cc(Sc3ccc4c(=O)[nH][nH]c4c3)nc3ccccc23)n[nH]1
CN1CCC(OCc2cc(Nc3cc(C4CC4)[nH]n3)nc(Sc3ccc4c(=O)[nH][nH]c4c3)n2)CC1
O=c1[nH][nH]c2cc(Nc3cccc(Nc4cc(C5CC5)[nH]n4)n3)ccc12
NCCOc1cccc2c(Nc3n[nH]c4ccccc34)nc(-c3ccc4[nH][nH]c(=O)c4c3C(F)(F)F)nc12
O=c1[nH][nH]c2cc(Nc3ccc([N+](=O)[O-])c(Nc4ncn[nH]4)n3)ccc12
Cc1cc(Nc2nc(COc3ccc4[nH][nH]c(=O)c4c3)nc3c2CCCCC3)n[nH]1
Cc1nc(-c2cc3c(=O)[nH][nH]c3cc2Cl)cc(Nc2n[nH]c3ccc(F)cc23)c1C
COc1ccc(-c2cc(Nc3cc(C)[nH]n3)nc(Oc3ccc4c(=O)[nH][nH]c4c3)n2)cc1
O=c1[nH][nH]c2cc(C3(C4CCCC(Nc5ccccn5)C4)CC3)ccc12 (stereo not given)
O=c1[nH][nH]c2cc(Oc3cc4ccccc4c(Nc4cc(C5CC5)[nH]n4)n3)ccc12
O=c1[nH][nH]c2cc(SCCC(Nc3nccnn3)c3ccccc3)ccc12 (stereo not given)
O=c1[nH][nH]c2cc(CCCCNc3cc(C4CC4)[nH]n3)ccc12
Cc1cnc(NC2CCC(c3ccc4[nH][nH]c(=O)c4c3)C2)s1 (stereo not given)
Cn1cnc(NC(CCSc2ccc3c(=O)[nH][nH]c3c2)c2ccccc2)c1 (stereo not given)
CN(C)CCNc1nnc(Nc2n[nH]c3ccccc23)cc1-c1ccc2[nH][nH]c(=O)c2c1Cl
O=c1[nH][nH]c2cc(NC3CCCC(Nc4ccccn4)C3)ccc12 (stereo not given)
O=c1[nH][nH]c2cc(Sc3cccc(Nc4n[nH]c5ccccc45)n3)ccc12
O=C(CCNc1ccc2c(=O)[nH][nH]c2c1)Nc1nccnn1
O=c1[nH][nH]c2ccc(-c3nnc(C4CC4)c(Nc4n[nH]c5ccccc45)n3)c(C(F)(F)F)c12
O=c1[nH][nH]c2cc(Nc3cccc(Nc4cc(C5CC5)[nH]n4)c3)ccc12
Cn1cnc(NC2COCC(SCc3ccc4c(=O)[nH][nH]c4c3)C2)c1 (stereo not given)
Cc1cnc(NC(CCCc2ccc3c(=O)[nH][nH]c3c2)c2ccccc2)s1 (stereo not given)
COCCNC(=O)c1cc(Nc2cc(C)[nH]n2)nc(Sc2ccc3c(=O)[nH][nH]c3c2)n1
COc1ccc2c(Nc3cc(C)[nH]n3)nc(Sc3ccc4c(=O)[nH][nH]c4c3)nc2c1
O=c1[nH][nH]c2cc(OCC3CCCC3Nc3cc(C4CC4)[nH]n3)ccc12 (stereo not given)
CCc1cc(Nc2nc(Nc3ccc4c(=O)[nH][nH]c4c3)nc3ccccc23)n[nH]1
O=c1[nH][nH]c2cc(Nc3ncc(N4CCOCC4)c(Nc4cc(C5CC5)[nH]n4)n3)ccc12
O=c1[nH][nH]c2cc(Nc3nc(Nc4cc(C5CC5)[nH]n4)c4cc(N5CCCCC5)ccc4n3)ccc12
O=c1[nH][nH]c2cc(O)c(-c3nc(Nc4n[nH]c5c(F)cc(F)cc45)c4ccccc4n3)cc12
CN1CCN(C(=O)OCc2ccccc2)CC1c1cc(Nc2n[nH]c3ccccc23)nc(-c2ccc3[nH][nH]c(=O)c3c2C(F)(F)F)n1 (stereo not given)
O=c1[nH][nH]c2cc(NC3CCCC(Nc4nccnn4)C3)ccc12 (stereo not given)
O=c1[nH][nH]c2cc(Nc3cc(Nc4n[nH]c5ccccc45)c4ccccc4n3)ccc12
O=c1[nH][nH]c2cc(OCC3CCCC3Nc3ccccn3)ccc12 (stereo not given)
NC(=O)c1cc(-c2ncnc(Nc3n[nH]c4c3CCC(=O)C4)n2)cc2c(=O)[nH][nH]c12
O=c1[nH][nH]c2cc(OC3COCC(Nc4nccnn4)C3)ccc12 (stereo not given)
Cc1nc(-c2ccc3[nH][nH]c(=O)c3c2C(F)(F)F)nc(Nc2n[nH]c3ccccc23)c1C
O=c1[nH][nH]c2ccc(-c3nc4c(c(Nc5n[nH]c(C6CC6)n5)n3)CCCCC4)c(C(F)(F)F)c12
Cc1cc(Nc2nc(C(C)(C)c3ccc4c(=O)[nH][nH]c4c3)nc3c2CCCCC3)n[nH]1
Cc1cc(Nc2nc(Nc3ccc4c(=O)[nH][nH]c4c3)nc3ccc(-c4ccccc4Cl)cc23)n[nH]1
Cc1cc(Nc2nc(Oc3ccc4c(=O)[nH][nH]c4c3)nc3ccccc23)n[nH]1
Cc1cc(Nc2nc(-c3cc4c(=O)[nH][nH]c4cc3Cl)cc3ccccc23)n[nH]1
COc1cc(-c2cc(Nc3cc(C)[nH]n3)nc(Nc3ccc4c(=O)[nH][nH]c4c3)n2)cc(OC)c1OC
Cc1cnc(NC2CCCC(c3ccc4[nH][nH]c(=O)c4c3)C2)s1 (stereo not given)
O=c1[nH][nH]c2cc(C(F)(F)F)c(-c3cc4cccnc4c(Nc4nc[nH]n4)n3)cc12
O=c1[nH][nH]c2ccc(-c3nc(Nc4cc(C5CCCC5)[nH]n4)c4ccccc4n3)cc12
N#Cc1cc(Nc2n[nH]c3ccccc23)nc(-c2ccc3[nH][nH]c(=O)c3c2C(F)(F)F)n1
O=c1[nH][nH]c2cc(Sc3nc(Nc4cc[nH]n4)c4ccccc4n3)ccc12
O=c1[nH][nH]c2cc(OC3CCC(Nc4cc(C5CC5)[nH]n4)C3)ccc12 (stereo not given)
O=c1[nH][nH]c2cc(NCCONc3nccnn3)ccc12
O=C(CC(=O)Nc1ccccn1)Cc1ccc2c(=O)[nH][nH]c2c1
O=c1[nH][nH]c2cc(Oc3nc(Nc4cc(C5CC5)[nH]n4)c4ccccc4n3)ccc12
O=c1[nH][nH]c2cc(CC(CCNc3ccccn3)Cc3ccccc3)ccc12 (stereo not given)
Cc1cc(Nc2cc(C3CC3)[nH]n2)nc(Sc2ccc3c(=O)[nH][nH]c3c2)n1
CC(C)NC(=O)c1cc(Nc2nc(-c3ccc4[nH][nH]c(=O)c4c3)nc3ccccc23)n[nH]1
